Data taken from patent US20020081661A1 (Synaptic Pharmaceutical Corporation, priority 1992, published 2002).
Where two headings read alike, the source gives them in different places.

Experiments:
[1] = molecular target: T1, rat 5-HT4 (CG-7) receptor (Rattus norvegicus, UniProt Q62758); assay: cAMP formation in intact Cos-7 cells transiently expressing CG-7; assay type: cell-based; conditions: for I. A. (intrinsic activity): CG-7, maximum response normalized to 5-HT maximum = 1.0; for effect on responses to 5-HT: CG-7, 10 μM
T1 construct: two individual full length cDNA clones, S10-87 and S10-95, were isolated; expressed in transfected cells; host or cells: COS-7 (transient, DEAE-dextran)
Protocol: (§1) Measurement of cAMP Formation: The transiently transfected Cos-7 cells were incubated in Dulbecco's modified Eagle's medium, 5 mM theophylline, 10 mM Hepes (4-[2-Hydroxyethyl]-1-piperazineethanesulfonic acid), 10 μM pargyline, and/or appropriate concentrations of antagonists for 20 minutes at 37° C., 5% CO2. […] The media was aspirated and the reaction stopped by the addition of 100 mM HCl. The plates were stored at 4° C. for 15 minutes, centrifuged for 5 minutes, 500×g to pellet cellular debris, and the supernatant aliquotted and stored at −20° C. prior to assessment of cAMP formation by radioimmunoassay (cAMP Radioimmunoassay kit, Advanced Magnetics, Cambridge, Mass.). Radioactivity was quantitated using a Packard COBRA Auto Gamma Counter equipped with data reduction software. Functional data was fitted to a four parameter logistic equation to obtain response parameters (EC50, Emax, nH; Inplot, GraphPad, San Diego, Calif.).

[2] = molecular target: T2, rat 5-HT4 (CG-8) receptor (Rattus norvegicus, UniProt Q62758); assay: cAMP formation in intact Cos-7 cells transiently expressing CG-8; assay type: cell-based; conditions: for I. A. (intrinsic activity): CG-8, maximum response normalized to 5-HT maximum = 1.0; for effect on responses to 5-HT: CG-8, 10 μM
T2 construct: two individual full length cDNA clones, S10-87 and S10-95, were isolated; expressed in transfected cells; host or cells: COS-7 (transient, DEAE-dextran)
Protocol: as §1

[3] = molecular target: T3, rat 5-HT4 receptor S10-87 (CG-7) (Rattus norvegicus, UniProt Q62758); assay: [3H]5-HT radioligand binding (saturation and displacement), membranes of Cos-7 cells transiently expressing rat S10-87 (CG-7)
Protocol: (§2) Membrane Preparation: Membranes were prepared from transiently transfected COS-7 cells which were grown to 100% confluence. The cells were washed twice with phosphate-buffered saline, scraped from the culture dishes into 5 ml of ice-cold phosphate-buffered saline, and centrifuged at 200×g for 5 min at 4′. The pellet was resuspended in 2.5 ml of ice-cold Tris buffer (20 mM Tris -HCl, pH 7.4 at 23°, 5 mM EDTA), and homogenized by a Wheaton tissue grinder. The lysate was subsequently centrifuged at 200×g for 5 min at 4° to pellet large fragments which were discarded. The supernatant was collected and centrifuged at 40,000×g for 20 min at 4°. The pellet resulting from this centrifugation was washed once in ice-cold Tris wash buffer and finally resuspended in a final buffer containing 50 mM Tris-HCl and 0.5 mM EDTA, pH 7.4 at 23°. Membrane preparations were kept on ice and utilized within two hr for the radioligand binding assays.
(§3) The binding profile of drugs in competition experiments was established using 7 concentrations of compound. Incubation times were 30 min for both saturation and displacement studies. […] Binding was initiated by the addition of 50 μl membrane homogenates (10-20 μg). The reaction was terminated by rapid filtration through presoaked (0.5% polyethyleneimine) filters using 48R Cell Brandel Harvester (Gaithersburg, Md.). Subsequently, filters were washed for 5 sec with ice cold buffer (50 mM Tris HCL, pH 7.4 at 4° C.), dried and placed into vials containing 2.5 ml of Readi-Safe (Beckman, Fullerton, Calif.), and radioactivity was measured using a Beckman LS 6500C liquid scintillation counter. […] Binding data were analyzed by computer-assisted nonlinear regression analysis (Accufit and Accucomp, Lundon Software, Chagrin Falls, Ohio).

[4] = molecular target: rat 5-HT4 receptor S10-95 (CG-8) (Rattus norvegicus, UniProt Q62758); assay: [3H]GR113808 binding (saturation and displacement), COS-7 membranes, rat clone CG-8; parameters: two individual full length cDNA clones, S10-87 and S10-95, were isolated; expressed in transfected cells; host or cells: COS-7 (transient, DEAE-dextran); conditions: for effect on [3H]GR113808 binding: CG-8, concentrations up to 1 μM
Protocol: as §2
(§4) The binding profile of drugs in competition experiments was established using 10-12 concentrations of compound. Incubation times were 30 min for both saturation and displacement studies.

[5] = molecular target: T3, rat 5-HT4 receptor S10-87 (CG-7); assay: [3H]GR113808 binding (saturation and displacement), COS-7 membranes, rat clone CG-7; parameters: two individual full length cDNA clones, S10-87 and S10-95, were isolated; expressed in transfected cells; host or cells: COS-7 (transient, DEAE-dextran); conditions: for effect on [3H]GR113808 binding: CG-7, concentrations up to 1 μM
Protocol: as §2, §4

[6] = molecular target: T4, human 5-HT4 receptor S10-95 (CG-17) (Homo sapiens, UniProt Q13639); assay: [3H]5-HT displacement binding, human CG-17 clone; conditions: for fold higher affinity for the human CG-17 clone: human CG-17 compared with rat clones; for activity at the CG-17 clone: [3H]5-HT displacement, up to concentration of 1 μM
T4 construct: Isolation of the full length human S10-95 cDNA clone; expressed in transfected cells; host or cells: COS-7 (transient, DEAE-dextran)
Protocol: as §2, §3

[7] = CG-7, stimulation of basal cAMP release
[8] = CG-7, stimulation of basal cAMP release, means ± S.E.M. of three experiments, read-out: EC50
[9] = CG-8, stimulation of basal cAMP release, means ± S.E.M. of three experiments, read-out: EC50
[10] = Affinity constants (Ki), CG-7, 10 nM [3H]5-HT, mean ± SEM, >1000 estimated from one point displacement at 1 uM
[11] = K1 (nM), CG-7, binding data using [3H]5-HT, Table 4
[12] = CG-8, 0.2-0.4 nM [3H]GR113808, single experiment, read-out: Affinity estimate K1
[13] = CG-7, 0.2-0.4 nM [3H]GR113808, single experiment, read-out: Affinity estimate K1
[14] = CG-8, stimulation of basal cAMP release

T3 sequence (Q62758 1-387 isoform Q62758-2): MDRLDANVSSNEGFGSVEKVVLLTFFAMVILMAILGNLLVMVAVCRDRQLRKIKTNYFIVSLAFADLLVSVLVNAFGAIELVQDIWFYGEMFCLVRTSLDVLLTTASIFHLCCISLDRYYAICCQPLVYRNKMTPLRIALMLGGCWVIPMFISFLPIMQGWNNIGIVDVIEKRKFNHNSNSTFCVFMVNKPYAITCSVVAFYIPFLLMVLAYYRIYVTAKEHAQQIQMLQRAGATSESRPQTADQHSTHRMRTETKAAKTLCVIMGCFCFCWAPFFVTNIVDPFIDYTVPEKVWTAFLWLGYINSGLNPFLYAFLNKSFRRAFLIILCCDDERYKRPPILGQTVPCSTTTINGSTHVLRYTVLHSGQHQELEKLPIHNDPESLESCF
T1 sequence (Q62758 1-387 isoform Q62758-2): as above
T4 sequence (Q13639 whole entry): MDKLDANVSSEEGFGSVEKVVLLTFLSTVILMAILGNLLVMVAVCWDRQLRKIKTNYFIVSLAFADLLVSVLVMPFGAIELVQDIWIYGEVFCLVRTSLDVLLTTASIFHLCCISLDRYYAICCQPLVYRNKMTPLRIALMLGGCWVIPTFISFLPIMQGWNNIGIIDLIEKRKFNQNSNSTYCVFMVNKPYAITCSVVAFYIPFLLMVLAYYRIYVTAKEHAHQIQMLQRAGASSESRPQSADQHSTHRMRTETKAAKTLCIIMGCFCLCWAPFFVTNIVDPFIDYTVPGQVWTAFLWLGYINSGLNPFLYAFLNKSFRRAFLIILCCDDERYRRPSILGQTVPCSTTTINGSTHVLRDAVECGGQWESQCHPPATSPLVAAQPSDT
T2 sequence (Q62758 whole entry): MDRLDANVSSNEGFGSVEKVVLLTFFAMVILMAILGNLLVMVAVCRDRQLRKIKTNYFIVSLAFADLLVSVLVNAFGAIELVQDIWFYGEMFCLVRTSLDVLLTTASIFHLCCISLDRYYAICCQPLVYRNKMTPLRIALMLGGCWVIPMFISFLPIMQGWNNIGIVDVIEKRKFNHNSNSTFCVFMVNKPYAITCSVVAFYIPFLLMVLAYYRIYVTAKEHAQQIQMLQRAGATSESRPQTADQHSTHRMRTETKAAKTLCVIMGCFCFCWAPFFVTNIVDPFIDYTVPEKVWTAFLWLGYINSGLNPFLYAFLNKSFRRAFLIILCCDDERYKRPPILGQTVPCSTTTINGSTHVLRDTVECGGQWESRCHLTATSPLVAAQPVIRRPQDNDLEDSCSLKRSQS
Sequence of rat 5-HT4 receptor S10-95 (CG-8) (Q62758 whole entry): as above

With COc1cc(N)c(Cl)cc1C(=O)NC1CCN(CCCOc2ccc(F)cc2)CC1OC (stereo not shown) [Cisapride, cisapride] as the molecule, how does the “agonist / antagonist character” value ([1]; CG-7, cAMP response) read?
Its value is “partial agonists”.

What about the “I. A. (intrinsic activity)” value [1] of the same molecule?
Its value is 1.2.

And the “times less potent than 5-HT” value [1, 7]?
The value was “about 10 fold”.

And the EC50 [1, 8]?
The EC50 was 191 ± 26 nM.

And the “agonist / antagonist character” value ([2]; CG-8, cAMP response)?
Its value is “partial agonists”.

And the “I. A. (intrinsic activity)” value [2]?
Its value is 1.4.

And the EC50 [2, 9]?
The EC50 was 413 ± 199 nM.

What about the Ki [3, 10] of the same molecule?
Its Ki is 10.9 ± 0.3 nM.

What about the Ki [3, 11] of the same molecule?
Its Ki is 11 ± 0.3 nM.

And the Ki [4, 12]?
The Ki was 84 nM.

What about the “BH (percentage of high affinity sites)” value ([4]; CG-8, [3H]GR113808) of the same molecule?
The value was 11%.

And the “nH (Hill coefficient)” value ([4]; CG-8, [3H]GR113808)?
The value was “nH = 0.83”.

And the Ki ([4]; CG-8, [3H]GR113808, read-out: KH (affinity for the high affinity state))?
Its Ki is 2.7 nM.

And the Ki ([4]; read-out: KL (affinity for the low affinity state), CG-8, [3H]GR113808)?
The Ki was 105 nM.

CSc1ccc2c(c1)C(N1CCN(C)CC1)Cc1ccccc1S2 (stereo not shown) [methiothepin] was tested. Which “effect on responses to 5-HT” value [1] did it give?
Its value is “not affected”.

And the “effect on responses to 5-HT” value [2]?
The value was “not affected”.

Which Ki [5, 13] does the source give for CCN(CC)C(=O)[C@@H]1C=C2c3cccc4[nH]cc(c34)C[C@H]2N(C)C1 [d-LSD] here?
The Ki was > 10000 nM.

What about the Ki [4, 12] of the same molecule?
Its Ki is > 10000 nM.

How did the Ki ([6]; human CG-17, 10 nM [3H]5-HT, single experiment, >1,000 from one point displacement at 1 μM, read-out: Ki) turn out when CC(N)Cc1c[nH]c2ccc(O)cc12 (stereo not drawn) [α-Me-5-HT] was run?
Its Ki is 1.6 nM.

What about the “fold higher affinity for the human CG-17 clone” value [6] of the same molecule?
Its value is “approximately 100 fold”.

And the “I. A. (intrinsic activity)” value [1]?
Its value is 0.90.

And the “times less potent than 5-HT” value [1, 7]?
Its value is “about 10 fold”.

What about the EC50 [1, 8] of the same molecule?
The EC50 was 250 ± 91 nM.

What about the “I. A. (intrinsic activity)” value [2] of the same molecule?
Its value is 1.0.

And the “fold lower affinity than 5-HT” value [2, 14]?
Its value is “approximately 20 fold”.

What about the EC50 [2, 9] of the same molecule?
The EC50 was 1040 nM.

And the Ki [5, 13]?
The Ki was 2260 nM.

What about the Ki [4, 12] of the same molecule?
Its Ki is 1860 nM.

With COc1ccc2[nH]cc(CCN)c2c1 [5-MeOT, 5-methoxytryptamine] as the molecule, how does the Ki [6] read?
The Ki was 71 nM.

What about the “fold less potent at the human CG-17” value ([6]; human CG-17 compared to the rat clones) of the same molecule?
The value was “approximately 3 fold”.

And the “fold higher affinity for the human CG-17 clone” value [6]?
Its value is ~5 fold.

What about the EC50 [1] of the same molecule?
Its EC50 is 21 ± 6 nM.

And the “I. A. (intrinsic activity)” value [1]?
The value was 1.0.

And the “times less potent than 5-HT” value [1, 7]?
The value was “approximately equipotent”.

What about the EC50 [2] of the same molecule?
Its EC50 is 31 ± 13 nM.

And the “I. A. (intrinsic activity)” value [2]?
The value was 1.0.

What about the “fold lower affinity than 5-HT” value [2, 14] of the same molecule?
The value was “approximately equipotent”.

And the Ki [3, 10]?
Its Ki is 27.5 ± 5 nM.

What about the Ki [3, 11] of the same molecule?
The Ki was 27 ± 5 nM.

What about the Ki ([5]; Affinity estimate K1, CG-7, 0.2-0.4 nM [3H]GR113808, single experiment) of the same molecule?
The Ki was 438 nM.

What about the “BH (percentage of high affinity sites)” value ([5]; CG-7, [3H]GR113808) of the same molecule?
The value was 17%.

What about the “nH (Hill coefficient)” value ([5]; CG-7, [3H]GR113808) of the same molecule?
Its value is “nH = 0.57”.

And the Ki ([5]; KH (affinity for the high affinity state), CG-7, [3H]GR113808)?
The Ki was 14 nM.

What about the Ki ([5]; read-out: KL (affinity for the low affinity state), CG-7, [3H]GR113808) of the same molecule?
The Ki was 658 nM.

And the Ki [4]?
Its Ki is 518 nM.

And the “nH (Hill coefficient)” value ([4]; CG-8, [3H]GR113808)?
The value was “nH = 0.66”.

Which Ki [6] does the source give for NCCc1c[nH]c2ccc(C(N)=O)cc12 [5-CT, 5-carboxyamidotryptamine] here?
The Ki was > 10000 nM.

And the EC50 [1]?
The EC50 was 5570 nM.

What about the “I. A. (intrinsic activity)” value [1] of the same molecule?
Its value is 0.85.

And the “times less potent than 5-HT” value [1, 7]?
The value was ~200 fold.

What about the EC50 [2] of the same molecule?
The EC50 was 1410 nM.

What about the “I. A. (intrinsic activity)” value [2] of the same molecule?
The value was 1.2.

And the “fold lower affinity than 5-HT” value [2, 14]?
Its value is “about 30 fold”.

What about the Ki [3, 10] of the same molecule?
Its Ki is > 1000 nM.

What about the Ki [3, 11] of the same molecule?
Its Ki is > 1000 nM.

And the Ki ([3]; Kf values estimated, S10, [3H]5-HT displacement, low affinity compounds)?
Its Ki is > 1000 nM.

What about the Ki [5, 13] of the same molecule?
The Ki was > 10000 nM.

What about the Ki [4] of the same molecule?
Its Ki is > 10000 nM.

With CCCN(CCC)C1CCc2cccc(O)c2C1 (stereo not shown) [8-OH-DPAT, 8-hydroxy-2-(di-n-propylamino)tetralin] as the molecule, how does the Ki [6] read?
Its Ki is > 1000 nM.

And the “activity at the CG-17 clone” value [6]?
The value was “inactive”.

And the Ki [3]?
The Ki was > 1000 nM.

What about the Ki [3, 10] of the same molecule?
Its Ki is > 1000 nM.

And the “effect on [3H]GR113808 binding” value [5]?
Its value is “no effect”.

What about the “effect on [3H]GR113808 binding” value [4] of the same molecule?
Its value is “no effect”.

Which “stimulation of basal cAMP release” value ([1]; CG-7, 1 μM, single dose preliminary study) does the source give for NCCc1c[nH]c2ccc(O)cc12 [5-HT, serotonin] here?
Its value is “about 30 fold”.

And the “maximum cAMP release” value ([1]; CG-7, FIG. 9)?
Its value is 0.42±0.03 pmol/ml/10 min.

And the “I. A. (intrinsic activity)” value [1]?
The value was 1.0.

What about the “stimulation of basal cAMP release” value ([2]; CG-8, 1 μM, single dose preliminary study) of the same molecule?
The value was “about 30 fold”.

What about the “maximum cAMP release” value ([2]; CG-8, FIG. 10) of the same molecule?
Its value is 0.57±0.04 pmol/ml/10 min.

And the “I. A. (intrinsic activity)” value [2]?
The value was 1.0.

And the “BH (percentage of high affinity sites)” value ([5]; CG-7, [3H]GR113808)?
The value was 22%.

And the “nH (Hill coefficient)” value ([5]; CG-7, [3H]GR113808)?
The value was “nH = 0.62”.

What about the “BH (percentage of high affinity sites)” value ([4]; CG-8, [3H]GR113808) of the same molecule?
Its value is 24%.

And the “nH (Hill coefficient)” value ([4]; CG-8, [3H]GR113808)?
Its value is “nH = 0.67”.

For O=C(c1ccc(F)cc1)C1CCN(CCn2c(=O)[nH]c3ccccc3c2=O)CC1 [Ketanserin, ketanserin], which “activity at the CG-17 clone” value [6] is on record?
The value was “inactive”.

And the Ki ([6]; read-out: Ki)?
The Ki was > 1000 nM.

What about the Ki [3] of the same molecule?
The Ki was > 1000 nM.

What about the Ki [3, 10] of the same molecule?
The Ki was > 1000 nM.

And the “effect on [3H]GR113808 binding” value [5]?
Its value is “no effect”.

And the “effect on [3H]GR113808 binding” value [4]?
Its value is “no effect”.

Which results are given for CNS(=O)(=O)Cc1ccc2[nH]cc(CCN(C)C)c2c1 [Sumatriptan, sumatriptan]?
activity at the CG-17 clone [6]: inactive; Ki ([6]; read-out: Ki): > 1000 nM; Ki [3]: > 1000 nM; Ki [3, 10]: > 1000 nM; effect on [3H]GR113808 binding [5]: no effect; effect on [3H]GR113808 binding [4]: no effect

Which results are given for O=C(CCCN1CCC2(CC1)C(=O)NCN2c1ccccc1)c1ccc(F)cc1 [spiperone]?
effect on responses to 5-HT [1]: not affected; effect on responses to 5-HT [2]: not affected
